Assay results: patent US20260274807A1 (University of Health Sciences and Pharmacy in St. Louis, priority 2023, published 2026)

What was measured:
ERRγ = target: T1, ERRγ (Homo sapiens, UniProt P62508); assay: ERRE luciferase reporter assay in HEK293 cells transfected with pcDNA3.1 ERRγ; type: cell-based; set-up: key to EC50 (ERRγ) μM: * <1 μM; ** 1-5 μM; *** >5 μM; i.a. (inactive); conditions: HEK293 cells transfected with ERRE reporter construct and pcDNA3.1 ERRγ; compound for 24 hours; luciferase activity
T1 construct: expressed in transfected cells; host or cells: HEK293
T1 sequence (P62508 1-458): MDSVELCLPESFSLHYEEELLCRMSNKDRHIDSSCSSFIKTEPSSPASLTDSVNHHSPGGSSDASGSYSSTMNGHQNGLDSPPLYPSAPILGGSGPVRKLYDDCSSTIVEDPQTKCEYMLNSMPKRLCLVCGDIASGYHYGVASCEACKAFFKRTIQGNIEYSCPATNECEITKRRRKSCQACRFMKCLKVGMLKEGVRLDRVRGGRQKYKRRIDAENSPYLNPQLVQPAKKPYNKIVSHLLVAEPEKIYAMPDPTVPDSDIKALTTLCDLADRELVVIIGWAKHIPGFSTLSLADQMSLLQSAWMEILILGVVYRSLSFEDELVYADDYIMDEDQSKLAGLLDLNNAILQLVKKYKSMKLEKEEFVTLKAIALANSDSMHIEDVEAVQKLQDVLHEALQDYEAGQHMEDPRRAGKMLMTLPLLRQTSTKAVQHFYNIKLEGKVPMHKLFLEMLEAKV

ERRα = target: T2, ERRα (Homo sapiens, UniProt P11474); assay: ERRE luciferase reporter assay in HEK293 cells transfected with pcDNA3.1 ERRα; type: cell-based; set-up: key to EC50 (ERRα) μM: * <1 μM; ** 1-5 μM; *** >5 μM; i.a. (inactive); conditions: HEK293 cells transfected with ERRE reporter construct and pcDNA3.1 ERRα; compound for 24 hours; luciferase activity
T2 construct: expressed in transfected cells; host or cells: HEK293
T2 sequence (P11474 1-423): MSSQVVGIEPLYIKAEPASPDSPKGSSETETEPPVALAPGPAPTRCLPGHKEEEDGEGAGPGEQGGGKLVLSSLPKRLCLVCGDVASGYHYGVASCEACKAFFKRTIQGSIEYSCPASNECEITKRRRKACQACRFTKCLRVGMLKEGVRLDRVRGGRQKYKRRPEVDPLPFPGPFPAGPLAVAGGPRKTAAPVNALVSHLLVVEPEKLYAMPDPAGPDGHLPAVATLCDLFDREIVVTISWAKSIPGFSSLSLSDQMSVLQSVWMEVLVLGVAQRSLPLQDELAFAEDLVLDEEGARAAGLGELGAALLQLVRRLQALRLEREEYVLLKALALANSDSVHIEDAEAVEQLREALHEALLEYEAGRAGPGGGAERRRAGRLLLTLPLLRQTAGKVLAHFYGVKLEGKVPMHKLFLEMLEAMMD

Row | SMILES | EC50 (ERRγ) [nM] | EC50 (ERRα) [nM] | EC50 (ERRγ) μM (ERRγ) | EC50 (ERRα) μM (ERRα)
1 | COc1cccc(-c2nnc(-c3ccccc3)s2)c1[N+](=O)[O-] [Entry 1023, 2-(3-methoxy-2-nitrophenyl)-5-phenyl-1,3,4-thiadiazole] | < 1000 | < 1000 |  | 
2 | COc1ccc(-c2nnc(-c3ccccc3Cl)s2)cc1 [Entry 1024, 2-(2-chlorophenyl)-5-(4-methoxyphenyl)-1,3,4-thiadiazole] | < 1000 | < 1000 |  | 
3 | Cc1ccc(-c2nnc(-c3ccnc4ccccc34)s2)cc1 [Entry 1025, 2-(quinolin-4-yl)-5-(p-tolyl)-1,3,4-thiadiazole] | < 1000 | < 1000 |  | 
4 | COc1ccc(-c2nnc(-c3ccccc3)s2)c(N)c1 [Entry 1026, 5-methoxy-2-(5-phenyl-1,3,4-thiadiazol-2-yl)aniline] | > 5000 | > 5000 |  | 
5 | O=[N+]([O-])c1ccccc1Cc1nnc(-c2ccc(C(F)(F)F)cc2)s1 [Entry 1028, 2-(2-nitrobenzyl)-5-(4-(trifluoromethyl)phenyl)-1,3,4-thiadiazole] | 1000 to 5000 | 1000 to 5000 |  | 
6 | Cc1ccc(-c2nnc(-c3ccc(C)o3)s2)cc1 [Entry 1029, 2-(5-methylfuran-2-yl)-5-(p-tolyl)-1,3,4-thiadiazole] | < 1000 | 1000 to 5000 |  | 
7 | Cc1ccc(-c2nnc(-c3cccs3)s2)cc1 [Entry 1031, 2-(thiophen-2-yl)-5-(p-tolyl)-1,3,4-thiadiazole] | < 1000 | < 1000 |  | 
8 | COc1ccc(-c2nnc(NC(=O)c3ccccc3)s2)cc1 [Entry 1033, N-(5-(4-methoxyphenyl)-1,3,4-thiadiazol-2-yl)benzamide] |  |  | i.a. | i.a.
9 | Cc1ccc(C(=O)Nc2nnc(-c3ccccc3Cl)s2)cc1 [Entry 1034, N-(5-(2-chlorophenyl)-1,3,4-thiadiazol-2-yl)-4-methylbenzamide] |  |  | i.a. | i.a.
10 | COc1ccc(-c2nnc(-c3ccccc3)s2)c([N+](=O)[O-])c1 [Entry 1036, 2-(4-methoxy-2-nitrophenyl)-5-phenyl-1,3,4-thiadiazole] | < 1000 | < 1000 |  | 
11 | Cc1cccc(-c2nnc(-c3ccccc3Cl)s2)c1 [Entry 1041, 2-(2-chlorophenyl)-5-(m-tolyl)-1,3,4-thiadiazole] | < 1000 | > 5000 |  | 
12 | Cc1ccc(-c2nnc(-c3ccc4ccccc4n3)s2)cc1 [Entry 1042, 2-(quinolin-2-yl)-5-(p-tolyl)-1,3,4-thiadiazole] | < 1000 | > 5000 |  | 
13 | Cc1ccc(-c2nnc(-c3cccc4ccccc34)s2)cc1 [Entry 1043, 2-(naphthalen-1-yl)-5-(p-tolyl)-1,3,4-thiadiazole] | < 1000 | < 1000 |  | 
14 | Cc1ccc(-c2nnc(-c3ccc4ccccc4c3)s2)cc1 [Entry 1044, 2-(naphthalen-2-yl)-5-(p-tolyl)-1,3,4-thiadiazole] | < 1000 | > 5000 |  | 
15 | Oc1ccc(-c2nnc(-c3ccc4ccccc4c3)s2)cc1 [Entry 1046, 4-(5-(naphthalen-2-yl)-1,3,4-thiadiazol-2-yl)phenol] | < 1000 | < 1000 |  | 
16 | Oc1ccc(-c2nnc(-c3ccc4ccccc4n3)s2)cc1 [Entry 1047, 4-(5-(quinolin-2-yl)-1,3,4-thiadiazol-2-yl)phenol] |  |  | i.a. | i.a.
17 | COC(=O)c1cccc(-c2nnc(-c3ccccc3Cl)s2)c1 [Entry 1050, methyl 3-(5-(2-chlorophenyl)-1,3,4-thiadiazol-2-yl)benzoate] | < 1000 | < 1000 |  | 
18 | COC(=O)c1ccc(-c2nnc(-c3ccccc3Cl)s2)cc1 [Entry 1051, methyl 4-(5-(2-chlorophenyl)-1,3,4-thiadiazol-2-yl)benzoate] | < 1000 | < 1000 |  | 
19 | CCCCOc1ccc(-c2nnc(-c3ccccc3Cl)s2)cc1 [Entry 1052, 2-(4-butoxyphenyl)-5-(2-chlorophenyl)-1,3,4-thiadiazole] | < 1000 | < 1000 |  | 
20 | Cc1ccc(-c2nnc(-c3cnn(-c4ccccc4)c3)s2)cc1 [Entry 1053, 2-(1-phenyl-1H-pyrazol-4-yl)-5-(p-tolyl)-1,3,4-thiadiazole] | < 1000 | > 5000 |  | 
21 | Cc1ccc(-c2nnc(-c3cccc4ncccc34)s2)cc1 [Entry 1058, 2-(quinolin-5-yl)-5-(p-tolyl)-1,3,4-thiadiazole] | < 1000 | < 1000 |  | 
22 | Cc1ccc(-c2nnc(-c3nccs3)s2)cc1 [Entry 1060, 2-(thiazol-2-yl)-5-(p-tolyl)-1,3,4-thiadiazole] | < 1000 | < 1000 |  | 

Second part, the molecule after the results:

Row | EC50 (ERRγ) [nM] | EC50 (ERRα) [nM] | EC50 (ERRγ) μM (ERRγ) | EC50 (ERRα) μM (ERRα) | SMILES
23 | < 1000 | < 1000 |  |  | COc1ccc(-c2nnc(-c3ccccc3[N+](=O)[O-])s2)cc1 [Entry 1021, 2-(4-methoxyphenyl)-5-(2-nitrophenyl)-1,3,4-thiadiazole]
24 | < 1000 | < 1000 |  |  | COc1ccc(-c2nnc(-c3cccs3)s2)cc1 [Entry 1022, 2-(4-methoxyphenyl)-5-(thiophen-2-yl)-1,3,4-thiadiazole]
25 | < 1000 | < 1000 |  |  | CC(C)(C)c1ccc(-c2nnc(-c3ccccc3N)s2)cc1 [Entry 1027, 2-(5-(4-(tert-butyl)phenyl)-1,3,4-thiadiazol-2-yl)aniline]
26 | < 1000 | < 1000 |  |  | Nc1ccc(-c2nnc(-c3ccccc3)s2)cc1 [Entry 1030, 4-(5-phenyl-1,3,4-thiadiazol-2-yl)aniline]
27 |  |  | i.a. | i.a. | O=C(Nc1nnc(-c2ccccc2)s1)c1ccccc1 [Entry 1032, N-(5-phenyl-1,3,4-thiadiazol-2-yl)benzamide]
28 | 1000 to 5000 | 1000 to 5000 |  |  | COc1ccc([N+](=O)[O-])c(-c2nnc(-c3ccccc3)s2)c1 [Entry 1035, 2-(5-methoxy-2-nitrophenyl)-5-phenyl-1,3,4-thiadiazole]
29 | < 1000 | 1000 to 5000 |  |  | O=[N+]([O-])c1cc(Br)ccc1-c1nnc(-c2ccccc2)s1 [Entry 1037, 2-(4-bromo-2-nitrophenyl)-5-phenyl-1,3,4-thiadiazole]
30 | 1000 to 5000 | 1000 to 5000 |  |  | c1ccc(Cc2nnc(-c3ccccc3)s2)cc1 [Entry 1038, 2-benzyl-5-phenyl-1,3,4-thiadiazole]
31 | > 5000 | > 5000 |  |  | c1ccc(-c2ccc(Cc3nnc(-c4ccccc4)s3)cc2)cc1 [Entry 1039, 2-([1,1′-biphenyl]-4-ylmethyl)-5-phenyl-1,3,4-thiadiazole]
32 | < 1000 | < 1000 |  |  | Cc1ccc(-c2nnc(-c3cccc(Cl)c3)s2)cc1 [Entry 1045, 2-(3-chlorophenyl)-5-(p-tolyl)-1,3,4-thiadiazole]
33 | < 1000 | < 1000 |  |  | Cc1ccc(-c2nnc(-c3ccc(Cl)cc3)s2)cc1 [Entry 1048, 2-(4-chlorophenyl)-5-(p-tolyl)-1,3,4-thiadiazole]
34 | < 1000 | < 1000 |  |  | Cc1ccc(-c2nnc(-c3ccc(B(O)O)cc3)s2)cc1 [Entry 1055, (4-(5-(p-tolyl)-1,3,4-thiadiazol-2-yl)phenyl)boronic acid]
35 | < 1000 | < 1000 |  |  | Clc1ccccc1-c1nnc(-c2cccc3ncccc23)s1 [Entry 1059, 2-(2-chlorophenyl)-5-(quinolin-5-yl)-1,3,4-thiadiazole]
36 | > 5000 | > 5000 |  |  | Clc1ccccc1-c1nnc(-c2nccs2)s1 [Entry 1061, 2-(2-chlorophenyl)-5-(thiazol-2-yl)-1,3,4-thiadiazole]
